Experimental data taken from patent US9724422B2, “Human lactoferrin derived peptide for use as an antigen masking agent” (Evonik Roehm GmbH, priority 2010, dated 2017).

Key:
[1] = Zeta potential of particles measured with Zetasizer; assay type: physicochemical; settings: PBS pH 7.4, FIG. 2
Experimental: (§1) Malvern Zetasizer Nano ZS90; Size parameters:
(§2) Material: Protein RI: 1.45 Absorption: 0.00, Dispersant: Water 25° C.: 0.8872 cP RI: 1.330; 37° C.: 0.6864 cP RI: 1.330, Cell: DTS 1060C: Clear disposable zeta cell
(§3) Measurement: Automatic 3 runs, positioning method: seek for optimum position, automatic attention selection, analysis model: general purpose
Zeta parameters: Dielectric constant: 78.5 at 25° C. and 74.4 at 37° C.
Model: Smoluchowski F(KA)value: 1.5, measurement: automatic 3 runs Automatic attention selection
(§4) Peptide oxidation: The peptide was dissolved to a concentration below 1 mM (2.75 mg/mL) in phosphate buffered saline (PBS), pH 7.4. (Ph. Eur.), e.g., 5 mg in 10 mL (=0.5 mg/mL). The solution was purged with pure oxygen for 5 minutes at 37° C. Incubate for 2 h at 37° C.
(§5) For the bacterial lysate dilution 1 mL of bacterial cell lysate were diluted up to 10 mL with PBS pH 7.4. (Ph. Eur.).
(§6) Attachment to the lysate particles was achieved by adding 1 ml bacterial lysate (=1.2 mg E. coli) with 0.097714286 mg hLF.
(§7) 20 μL of a 0.5 mg/mL solution of peptide were added to 1 mL of the previously diluted vaccine (0.12 mg/mL) and incubated 2 hours under low stirring, 100-150 rpm, at 4° C., preventing any foam building

[2] = Particle size (diameter) measured with Zetasizer; assay type: physicochemical; settings: PBS pH 7.4, FIG. 1
Experimental: as §1, §2, §3, §4, §5, §6, §7

[3] = test system: IgG immuno response; test: Total IgG by ELISA in rats treated with bacterial lysate, hLf fragment or their combination; assay type: in vivo
Experimental: Bacterial lysate: Klebsiella pneumoniae CECT 141; 12.000 million bacteria/mL (ten times the final concentration), Standard non-glycerinated formulation, without phenol hLF fragment, […] (SEQ ID NO: 1) oxidised form, as lyophilisate product; dosed in vials of 50 mg each, in 25 mL vials, to be reconstituted and used as stock solution for the length of the assay. Once reconstituted, keep cooled (4° C.)
Reconstitution of the hLF stock solution was performed by reconstitution of the 50 mg hLF fragment in a vial by addition of 20 mL of PBS. It was ensured a complete, proper reconstitution to a clear, homogeneous, particle-free solution. The vial was gently shaken by repeated inversion of the closed vial. The result was the hLF-stock solution for the trial: nominal concentration 2.5 mg/mL.
The hLF dilution for the animal trial was performed daily. For this 1 mL of the reconstituted hLF stock solution were transferred into a new 25 mL vial, followed by adding 21.5 mL of PBS and carefully mixing by repeated inversions of the closed vial to avoid foam formation. The result was the daily stock dilution, nominal concentration 0.1 mg/ml.
4.5 ml of the daily hLf dilution were transferred to a suitable vial (5 ml capacity or bigger), followed by adding 0.5 ml of the 12,000 million bacteria/mL bacterial lysate, and carefully mixing by repeated inversions of the closed vial to avoid foam formation. The result was 5 ml of A+B vaccine, 1200 million bacteria/ml, 0.1 mg hLf fragment/ml, ensuring the ratio 12:1.
4.5 ml of the daily hLf dilution were transferred to a suitable vial (5 ml capacity or bigger), followed by adding 0.5 ml of PBS and carefully mixing by repeated inversions of the closed vial and avoid foam formation. The result was 5 ml of 0.1 mg/ml hLf fragment solution.
0.5 ml of the bacterial lysate (12,000 million bacteria/ml) were transferred to a suitable vial (5 ml capacity or bigger), followed by adding 4.5 ml of PBS, and carefully mixing by repeated inversions of the closed vial and avoid foam formation. […]
The parameter to be measured is total IgG. […]

[4] = biological target: T1, Albumin (Bos taurus, UniProt P02769); test: Diffusion kinetics of hLf fragment mixed with protein, time-correlation confocal microscopy with fluorescent labels; assay type: binding; settings: protein I
T1 construct: purchased
Description: (§8) 3 different classes of cell-culture and blood derived naturally glycosylated proteins were mixed together in a native, that is, physiologically similar standard electrolyte buffer with the concentration shown in the Table with the same 22-mer of the human-lactoferrin peptides described above (using Sequence […] (SEQ ID NO: 1)).
(§9) The protein I is Albumin a blood protein fraction, known in its recombinant human version or as blood-product, protein II is a selective IgG antibody. Both from commercial sources. hLf as the reference moves as “free” in the volume element of the focus of the microscope whereas about 4% or 15% respectively of the fragment are unspecifically bound and moves slower.

[5] = test system: IgG antibody; test: as above; assay type: binding; settings: protein II, selective IgG antibody
Description: as §8, §9

[6] = Diffusion kinetics of free hLf fragment (reference), time-correlation confocal microscopy with fluorescent labels; assay type: physicochemical; settings: hLf alone as reference
Description: as §8, §9

T1 sequence (P02769 25-607): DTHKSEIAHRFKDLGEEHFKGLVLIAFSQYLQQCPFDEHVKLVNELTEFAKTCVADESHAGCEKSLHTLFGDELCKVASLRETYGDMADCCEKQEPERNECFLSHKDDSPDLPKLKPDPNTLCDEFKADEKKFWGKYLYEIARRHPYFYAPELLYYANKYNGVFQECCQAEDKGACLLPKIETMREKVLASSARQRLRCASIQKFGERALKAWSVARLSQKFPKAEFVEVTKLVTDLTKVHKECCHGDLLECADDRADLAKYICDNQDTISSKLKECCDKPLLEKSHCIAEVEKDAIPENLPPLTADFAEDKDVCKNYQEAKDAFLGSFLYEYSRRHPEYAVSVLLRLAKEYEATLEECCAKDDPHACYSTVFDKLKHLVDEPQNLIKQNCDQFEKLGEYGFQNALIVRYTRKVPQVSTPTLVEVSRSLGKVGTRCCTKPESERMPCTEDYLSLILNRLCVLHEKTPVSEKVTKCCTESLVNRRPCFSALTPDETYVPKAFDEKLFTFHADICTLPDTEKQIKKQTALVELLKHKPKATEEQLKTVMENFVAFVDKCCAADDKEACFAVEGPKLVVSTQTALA

KCFQWQRNMRKVRGPPVSCIKR (listed as Homo sapiens) [hLf, human lactoferrin derived peptide, 22-mer, used as antigen masking agent]
Zeta potential (surface charge of particles) [1]: overall positive charge
Particle size (aggregation) [2]: Aggregation is prone to occur
Variation in the IgG levels over time ([3]; independent of the mode of administration (i.p. or intragastric), days 0-27): does not appear to induce any effect on IgG levels over time
IgG levels compared with hLf+extract group ([3]; intragastric, day 6): superior IgG levels
IgG levels compared with control group ([3]; intraperitoneal, day 6 to day 27): no statistically significant difference
fragment unspecifically bound (moves slower) [4]: about 4%
fragment unspecifically bound (moves slower) [5]: ~15%
TauD1 [6]: 33 us
TauD2 [6]: 1419 us
f1 [6]: 99%
